Positions count from the first letter of the chain named.
Columns and labels:
Type in all cases: biochemical
[1] = molecular target: T1, triosephosphate isomerase (TIM), wildtype yeast (Saccharomyces cerevisiae, UniProt P00942); assay: steady-state kinetics of isomerization; conditions: read-out: Km ^b mM
T1 sequence (P00942 2-248): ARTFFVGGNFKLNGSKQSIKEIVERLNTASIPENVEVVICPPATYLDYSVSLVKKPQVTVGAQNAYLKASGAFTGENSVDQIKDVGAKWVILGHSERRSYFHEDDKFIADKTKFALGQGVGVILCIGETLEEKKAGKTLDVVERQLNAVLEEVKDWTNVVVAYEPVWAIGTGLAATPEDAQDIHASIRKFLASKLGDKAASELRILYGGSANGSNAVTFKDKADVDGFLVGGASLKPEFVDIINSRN

[2] = molecular target: T1, triosephosphate isomerase (TIM), wildtype yeast
[3] = molecular target: T2, triosephosphate isomerase (TIM), K12G mutant yeast (Saccharomyces cerevisiae, UniProt P00942, K12G)
T2 sequence (P00942 2-248 K12G): T1 sequence (P00942 2-248) with K11G

Row | SMILES | Km [1] [mM] | Ki [2] [µM] | Ki [3] [µM]
1 | O=C[C@H](O)COP(=O)(O)O [GAP, (R)-glyceraldehyde 3-phosphate] | 1.1 ± 0.2 |  | 
2 | O=C(O)COP(=O)(O)O [PGA, 2-phosphoglycolate] |  | 19 ± 4 | 1100 ± 200

— article PMC2890037 (Biochemistry, 2010)
